According to article PMC10654507, “A cleavable chimeric peptide with targeting and killing domains enhances LPS neutralization and antibacterial properties against multi-drug resistant E. coli” (Communications Biology, 2023):
Residues, ends and D or L forms follow the SMILES beside them.

How the values were obtained:
[1] = system: E. coli, S. typhimurium and S. aureus; type: cell-based; conditions: tested S. aureus strains
Experimental: The minimum inhibitory concentration (MIC) and minimum bactericidal concentration (MBC) of peptides were determined by the microtiter broth dilution method according to Clinical and Laboratory Standards Institute (CLSI) guidelines. […] PBS was used as the negative control. […] The MBC value was calculated as the lowest concentration of peptides resulting in a 99.9% reduction of the original inoculum. All experiments were repeated three times.

[2] = system: T1, furin; experiment: Cleavage of R7 by furin in vitro (RP-HPLC); type: in vitro ADME; conditions: human, recombinant human furin enzyme, furin 8 U/reaction, 25 °C, RP-HPLC peak area, read-out: Cleavage efficiency
T1 construct: purchased NEB (New England Biolabs) P8077
Experimental: Chimeric peptide R7 was treated with recombinant human furin enzyme (8 U/reaction; NEB P8077) in 50-μL reactions supplemented with in 20 mM HEPES, 0.1% Triton X-100, 1 mM CaCl2, 0.2 mM β-mercaptoethanol. The reaction mixtures were incubated at 25 °C for 65 h. An aliquot of 50 μL sample was taken at different time points, and analyzed by RP-HPLC or MALDI-TOF MS. […] The cleavage rate of R7 was calculated from the peak area as follows: Cleavage rate (%) = [(Area0 –Areat)/Area0] × 100, where 0 and t present digestion time[58].

[3] = system: MDR E. coli CVCC195; experiment: Antibacterial activity after incubation in mouse serum (inhibition zone); type: cell-based, Escherichia coli; conditions: until 8 h of incubation
Experimental: Serum stability of R7 and its parent-L7 was tested as previously described with minor modifications[46],[53]. Briefly, each peptide was added to the 25% mouse serum to a final concentration of 0.5 mM; 250 µL aliquots of samples were taken at 0, 0.5, 1, 2, 4 and 8 h, and mixed with 20 µL 15% trichloroacetic acid (TCA). The samples were incubated at 4 °C for 15 min and centrifuged for 10 min at 12,000 rpm. The supernatants were analyzed by RP-HPLC or inhibition zone method. Moreover, after incubation in serum for 2 h, R7 was analyzed by matrix assisted laser desorption/ionization-time of flight mass spectrometry (MALDI-TOF MS) and high-performance liquid chromatography-mass spectrometry (HPLC-MS), respectively.

[4] = system: MDR E. coli CVCC195; experiment: Efficacy of different doses of R7 in mice challenged with MDR E. coli (survival); type: in vivo, mouse; parameters: key: 1 represents a mouse death; 0 represents no death; conditions: Supplementary Fig. 4 source data, MDR E. coli challenge
Experimental: Supplementary Figure 4. Eﬀicacy of different doses of cleavable chimeric peptide R7 in the mice
challenged with MDR E. coli. Mice were intraperitoneally injected with 3.5, 7 or 14 μmol/kg R7 at 0
h (five mice/group), followed by injection with MDR E. coli CVCC195 (0.5×10^9 CFU/mouse) at 6 h.
PBS was used as control. Survival was recorded for 7 d.

CSCC[C@H](NC(=O)[C@H](CCCNC(=N)N)NC(=O)[C@H](Cc1c[nH]c2ccccc12)NC(=O)[C@H](C)NC(=O)[C@H](Cc1c[nH]c2ccccc12)NC(=O)[C@H](CCCNC(=N)N)NC(=O)[C@H](Cc1c[nH]c2ccccc12)NC(=O)[C@H](C)NC(=O)[C@H](CCCCN)NC(=O)[C@H](Cc1ccccc1)NC(=O)[C@H](CCCNC(=N)N)NC(=O)[C@H](CCCNC(=N)N)NC(=O)[C@H](CCCCN)NC(=O)[C@H](CCCNC(=N)N)NC(=O)[C@H](CCCCN)NC(=O)[C@H](Cc1ccccc1)NC(=O)[C@H](Cc1ccccc1)NC(=O)[C@H](CO)NC(=O)[C@H](C)NC(=O)[C@H](CCCNC(=N)N)NC(=O)[C@@H](NC(=O)[C@H](CCCCN)NC(=O)[C@H](Cc1c[nH]c2ccccc12)NC(=O)[C@H](CCCNC(=N)N)NC(=O)CNC(=O)[C@H](CCC(N)=O)NC(=O)[C@@H](NC(=O)[C@@H](N)CCCNC(=N)N)C(C)C)C(C)C)C(=O)N[C@@H](CCCCN)C(=O)N[C@@H](CCCCN)C(=O)N[C@@H](CC(C)C)C(=O)N[C@@H](C)C(=O)N[C@@H](C)C(=O)N1CCC[C@H]1C(=O)N[C@@H](CO)C(=O)O [R7] (H-RVQGRWKVRASFFKRKRRFKAWRWAWRMKKLAAPS-OH) was tested. Which “increase of activity compared to parent peptides (LBP14-RKRR and L7)” value [1] did it give?
The value was ≥ 2 fold.

And the metabolised at 4 h ([2]; digestion 4 h)?
The metabolised at 4 h was 14.5%.

And the metabolised at 8 h ([2]; digestion 8 h)?
Its metabolised at 8 h is 17.8%.

What about the metabolised at 18 h ([2]; digestion 18 h) of the same compound?
The metabolised at 18 h was 29.5%.

And the metabolised at 24 h ([2]; digestion 24 h)?
The metabolised at 24 h was 36.2%.

What about the metabolised at 30 h ([2]; digestion 30 h) of the same compound?
Its metabolised at 30 h is 42.5%.

And the metabolised at 44 h ([2]; digestion 44 h)?
Its metabolised at 44 h is 52.7%.

What about the metabolised at 53 h ([2]; digestion 53 h) of the same compound?
The metabolised at 53 h was 57.4%.

And the metabolised at 65 h ([2]; digestion 65 h)?
The metabolised at 65 h was 61.8%.

And the “change of antibacterial activity in mouse serum” value [3]?
Its value is “did not changed”.

What about the “efficacy of different doses, survival, event” value (from here on “efficacy of different doses”) ([4]; 3.5 μmol/kg R7, day 1, one cell per mouse) of the same compound?
The value was 1.

And the “efficacy of different doses” value ([4]; 3.5 μmol/kg R7, day 7)?
Its value is 0.

And the “efficacy of different doses” value ([4]; 7 μmol/kg R7, day 1)?
The value was 0.

And the “efficacy of different doses” value ([4]; 7 μmol/kg R7, day 2)?
Its value is 0.

And the “efficacy of different doses” value ([4]; 7 μmol/kg R7, day 3)?
Its value is 0.

What about the “efficacy of different doses” value ([4]; 7 μmol/kg R7, day 4) of the same compound?
The value was 0.

What about the “efficacy of different doses” value ([4]; 7 μmol/kg R7, day 7) of the same compound?
The value was 0.

What about the “efficacy of different doses” value ([4]; 14 μmol/kg R7, day 1) of the same compound?
The value was 0.

And the “efficacy of different doses” value ([4]; 14 μmol/kg R7, day 2)?
Its value is 0.

And the “efficacy of different doses” value ([4]; 14 μmol/kg R7, day 3)?
The value was 0.

What about the “efficacy of different doses” value ([4]; 14 μmol/kg R7, day 5) of the same compound?
The value was 0.

And the “efficacy of different doses” value ([4]; 14 μmol/kg R7, day 7)?
The value was 0.
